# Data as given in US12016858B2, “Methods for the treatment of abnormal involuntary movement disorders” (AUSPEX PHARMACEUTICALS, INC., priority 2015, dated 2024).
# How the values were obtained:
# [1] = tested on: cardiac repolarization (QTcF interval); test: TQT study, six-period crossover, placebo- and positive-controlled; type: in vivo, healthy volunteers
# Method: Study Design. Given the known risk for tetrabenazine to increase the QT interval, a TQT study of deutetrabenazine, which included tetrabenazine as a treatment arm, was conducted in 48 healthy volunteers. This was a single-center, randomized, double-blind, placebo- and positive-controlled six-period crossover study to evaluate the effects of low-dose (12 mg) and high-dose (24 mg) deutetrabenazine on cardiac repolarization, based on placebo-corrected, time-matched changes from baseline in the QTcF interval. Assay sensitivity was established by using moxifloxacin 400 mg as the positive control.
# The key outcome measure was to determine the effect of single doses of deutetrabenazine on the QTc interval.
# In the table above, ΔΔQTcF is defined as the difference between the least squares mean change from baseline for the active drug and placebo. deutetrabenazine was compared with deutetrabenazine placebo (administered under fed conditions) and tetrabenazine was compared with tetrabenazine placebo (administered under fasted conditions). […] The upper limit of the 95% one-sided confidence interval is the upper limit of the 90% 2-sided confidence interval.
# patients with HD = settings: cited from earlier work
# [2] = tested on: patients with hyperkinetic movement disorders; settings: retrospective study of 98 patients; cited from earlier work
# QTc interval = settings: 50 mg; 90% two-sided CI: 5.0, 10.4 ms; cited from earlier work
# [3] = 12-week placebo-controlled study
structure (smiles),measurement,setting,value
"COc1c(N2C[C@@H]3CCCN[C@@H]3C2)c(F)cc2c(=O)c(C(=O)O)cn(C3CC3)c12 [Moxifloxacin, reference compound]",Maximum Placebo-Adjusted Change from Baseline in QTcF,"[1]; 400 mg, positive control",14.0 ms
"COc1cc2c(cc1OC)C1CC(=O)C(CC(C)C)CN1CC2 (stereo not shown) [tetrabenazine, 1,3,4,6,7,11b-Hexahydro-9,10-dimethoxy-3-(2-methylpropyl)-2H-benzo[a]quinoline]",Maximum Placebo-Adjusted Change from Baseline in QTcF,"[1]; 50 mg single dose, fasted",7.6 ms
same,time point at which the maximal ΔΔQTcF was observed,[1]; in vivo,3 h
same,TMC score of the UHDRS,patients with HD; [3],demonstrated to improve the TMC score
same,TMS,patients with HD; [3],failed to show statistically significant improvement in TMS
same,adverse events suggestive of parkinsonism,patients with HD; 12-week randomized controlled trial,15%
same,patients in whom dose escalation was discontinued or dosage reduced due to adverse events,patients with HD; 28 of 54 patients randomized,52%
same,Adverse reaction Akathisia,patients with HD; N = 54,10 (19) n (%)
same,Adverse reaction Anxiety/anxiety aggravated,patients with HD; N = 54,8 (15) n (%)
same,Adverse reaction Appetite decreased,patients with HD; N = 54,2 (4) n (%)
same,Adverse reaction Balance difficulty,patients with HD; N = 54,5 (9) n (%)
same,Adverse reaction Bronchitis,patients with HD; N = 54,2 (4) n (%)
same,Adverse reaction Depression,patients with HD; N = 54,10 (19) n (%)
same,Adverse reaction Dizziness,patients with HD; N = 54,2 (4) n (%)
same,Adverse reaction Dysarthria,patients with HD; N = 54,2 (4) n (%)
same,Adverse reaction Dysuria,patients with HD; N = 54,2 (4) n (%)
same,Adverse reaction Ecchymosis,patients with HD; N = 54,3 (6) n (%)
same,Adverse reaction Fall,patients with HD; N = 54,8 (15) n (%)
same,Adverse reaction Fatigue,patients with HD; N = 54,12 (22) n (%)
same,Adverse reaction Gait unsteady,patients with HD; N = 54,2 (4) n (%)
same,Adverse reaction Headache,patients with HD; N = 54,2 (4) n (%)
same,Adverse reaction Insomnia,patients with HD; N = 54,12 (22) n (%)
same,Adverse reaction Irritability,patients with HD; N = 54,5 (9) n (%)
same,Adverse reaction Laceration (head),patients with HD; N = 54,3 (6) n (%)
same,Adverse reaction Nausea,patients with HD; N = 54,7 (13) n (%)
same,Adverse reaction Obsessive reaction,patients with HD; N = 54,2 (4) n (%)
same,Adverse reaction Parkinsonism/bradykinesia,patients with HD; N = 54,5 (9) n (%)
same,Adverse reaction Sedation/somnolence,patients with HD; N = 54,17 (31) n (%)
same,Adverse reaction Shortness of breath,patients with HD; N = 54,2 (4) n (%)
same,Adverse reaction Upper respiratory tract infection,patients with HD; N = 54,6 (11) n (%)
same,Adverse reaction Vomiting,patients with HD; N = 54,3 (6) n (%)
same,boxed warning: depression and suicidality in patients with HD,patients with HD; prescribing information,increases the risk of depression and suicidal thoughts and behavior (suicidality)
same,dysphagia observed in patients,[2],19%
same,mean increase in QTc interval,QTc interval,approximately 8 ms
